Experimental data reported in PubChem BioAssay AID2060357 (Molecular Pharmacology Branch, DTP, NCI, 2025).

System: 292921-168-R-J2-PDC spheroids with HUVEC/MSC, viability
Experiment: Anticancer human tumor 292921-168-R-J2-PDC patient-derived pancreatic carcinoma cell line growth inhibition [TAK]
Details: for IC50: curve of first compound; for viability, T/C: stronger effect = lower value; active = viability on the fitted dose curve at most 10% of control; inactive = the rest
Excerpt: Combinatorial screen of targeted agents with TAK-243 and ipatasertib in multi-cell type tumor spheroids
A high-throughput screen of multi-cell type tumor spheroids was designed to identify active combinations of targeted small molecules and TAK-243 or ipatasertib. Complex spheroids include a stromal component modeled by human endothelial cells (HUVEC) and fibroblasts modeled by human mesenchymal stem cells (MSCs). The concentration ranges selected for each drug and investigational agent were based upon clinically achievable concentrations if the clinical Cmax of the agent was known.
Compounds. The drugs and investigational agents: TAK-243 (785004), ipatasertib (767898), everolimus (733504), selumetinib (741078), bortezomib (756655), trametinib (758246), ixazomib (758254), vemurafenib (761431), dabrafenib (764134), sapanisertib (764658), alpelisib (765974), and copanlisib (816437), were obtained from the National Cancer Institute (NCI) Developmental Therapeutics Program Chemical Repository. The FDA-approved anticancer drug set is available from the NCI Developmental Therapeutics Program. […] The stock solutions were prepared in dimethyl sulfoxide (DMSO, Sigma-Aldrich, St. Louis, MO, cat. D2650) at 800-fold the tested concentration and stored at -70 degrees C prior to their use. All drugs and investigational agents were tested over a range starting from a high concentration at or near the clinical Cmax and decreasing in half-log increments. If the clinical Cmax for an agent had not been determined, the highest concentration tested was 10 microM.
NCI60 Cell Culture. NCI60 cell lines were obtained from the NCI Developmental Therapeutics Program Tumor Repository. For each lot of cells, the Repository performed Applied Biosystems AmpFLSTR Identifiler testing with PCR amplification to confirm consistency with the published Identifier STR profile for each cell line. Cells were kept in continuous culture for no more than 20 passages. The optimal seeding densities for each of the cell lines at each time point assessed were determined prior to performing the concentration response studies. Briefly, the NCI60 human tumor lines were grown as monolayers in RPMI 1640 medium supplemented with 10% FBS and 2 mmol/L L-glutamine.
An additional 2 lines were from the NCI60 cell line panel including melanomas, MALME-3M and SK-MEL-2. Pooled donor human umbilical vein endothelial cells (HUVEC, Lonza, cat. CC-2519) and human mesenchymal stem cells (hMSC, Lonza, cat. PT-2501) were purchased from Lonza (Walkersville, MD).
PDMR cell lines were grown in complete medium (DC medium): Dulbecco's modified Eagle's medium (DMEM)/F12 supplemented with 5% fetal bovine serum (FBS), 2 mM L-glutamine, 100 U/mL penicillin and 100 µg/ml streptomycin, 0.4 µg/ml hydrocortisone, 10 ng/ml epidermal growth factor (EGF) recombinant human protein, 24 µg/mL adenine, and 0.1 mg/mL primocin. During culture from frozen stock vials, PDMR cells were cultured in the same medium containing 10 µM Y-27632 (see Table 3). The PDCs were cultured in complete DMEM/F12 media without 10 microM Y-27632 dihydrochloride for at least two passages prior to the screen. The pooled donor HUVEC and hMSC were cultured in endothelial cell growth medium 2 (PromoCell, Heidelberg, Germany, cat. C-22011) and mesenchymal stem cell growth medium 2 (PromoCell, cat. C-28009), respectively. For all experiments, HUVEC and hMSC were used at passages </=5.
For the pre-screen, cell seeding densities were determined from a titration spanning the range from 5,000 to 313 cells per well. The mct-spheroids including 60% malignant cells, 25% HUVEC and 15% MSC dispensed as a mixture into U-bottom Ultra-Low Attachment 384-well plates (Corning, NY)
High-throughput Drug Combination Screening.
Prior to their inoculation into 384-well plates, malignant cells, HUVEC, and hMSC were removed from T flasks using TrypLE express (Thermo Fisher Scientific, cat. 12605036) and harvested by centrifugation for 5 min at 233 x g. […]
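Note: spheroids exposed to drugs for seven days before readout.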

COC1CC2CCC(C)C(O)(O2)C(=O)C(=O)N2CCCCC2C(=O)OC(C(C)CC2CCC(OCCO)C(OC)C2)CC(=O)C(C)C=C(C)C(O)C(OC)C(=O)C(C)CC(C)C=CC=CC=C1C (stereo not given) + CC(C)NCC(C(=O)N1CCN(c2ncnc3c2C(C)CC3O)CC1)c1ccc(Cl)cc1
< 0.316 nM: IC50 (second compound 9.49 µM) | IC50 (second compound 30 µM)
inactive: viability, T/C (second compound 0.3 µM, first compound 0.000316 µM) 64.3% | viability, T/C (second compound 0.3 µM, first compound 0.001 µM) 56.9% | viability, T/C (second compound 0.3 µM, first compound 0.00316 µM) 49.4% | viability, T/C (second compound 0.3 µM, first compound 0.01 µM) 50.6% | viability, T/C (second compound 0.3 µM, first compound 0.0316 µM) 45.3% | viability, T/C (second compound 0.3 µM, first compound 0.1 µM) 46.1% | viability, T/C (second compound 0.949 µM, first compound 0.000316 µM) 65.7% | viability, T/C (second compound 0.949 µM, first compound 0.001 µM) 59.9% | viability, T/C (second compound 0.949 µM, first compound 0.00316 µM) 50.2% | viability, T/C (second compound 0.949 µM, first compound 0.01 µM) 46.6% | viability, T/C (second compound 0.949 µM, first compound 0.0316 µM) 44.9% | viability, T/C (second compound 0.949 µM, first compound 0.1 µM) 45.2% | viability, T/C (second compound 3 µM, first compound 0.000316 µM) 60% | viability, T/C (second compound 3 µM, first compound 0.001 µM) 53.3% | viability, T/C (second compound 3 µM, first compound 0.00316 µM) 45.1% | viability, T/C (second compound 3 µM, first compound 0.01 µM) 42.4% | viability, T/C (second compound 3 µM, first compound 0.0316 µM) 43.8% | viability, T/C (second compound 3 µM, first compound 0.1 µM) 41.6% | viability, T/C (second compound 9.49 µM, first compound 0.000316 µM) 47.9% | viability, T/C (second compound 9.49 µM, first compound 0.001 µM) 39.8% | viability, T/C (second compound 9.49 µM, first compound 0.00316 µM) 35.7% | viability, T/C (second compound 9.49 µM, first compound 0.01 µM) 33.2% | viability, T/C (second compound 9.49 µM, first compound 0.0316 µM) 32.7% | viability, T/C (second compound 9.49 µM, first compound 0.1 µM) 32.9% | viability, T/C (second compound 30 µM, first compound 0.000316 µM) 33.4% | viability, T/C (second compound 30 µM, first compound 0.001 µM) 30.6% | viability, T/C (second compound 30 µM, first compound 0.00316 µM) 29% | viability, T/C (second compound 30 µM, first compound 0.01 µM) 26.3% | viability, T/C (second compound 30 µM, first compound 0.0316 µM) 26.2% | viability, T/C (second compound 30 µM, first compound 0.1 µM) 24.3%
1.41 nM: IC50 (second compound 3 µM)
4.77 nM: IC50 (second compound 0.949 µM)
5.01 nM: IC50 (second compound 0.3 µM)
